Experimental data from article PMC6199744, “Development of Chemical Proteomics for the Folateome and Analysis of the Kinetoplastid Folateome” (ACS Infectious Diseases, 2018).
Like-named read-outs stand apart in the source and are kept apart here.

Test system: T. brucei lysate proteins
Assay type: binding, Trypanosoma brucei
Settings: vehicle control = 1

In the case of `NCCCNc1ccc(C(=O)NC(CCC(=O)O)C(=O)O)cc1` (centres unmarked) [compound 7], the “fold change vs vehicle control” value (protein TB427.04.760 GAMMA-ADAPTIN 1, PUTATIVE) is reported as 0.84, the fold change (protein TB427.05.1210 SHORT-CHAIN DEHYDROGENASE, PUTATIVE) is reported as 0.95 and the “fold change vs vehicle control” value (protein TB427.05.1320 HY[…], CONSERVED) is reported as 0.92. The fold change (protein TB427.05.3030 INTR[…] PROTEIN IFT122, PUTATIVE) was 0.96, the “fold change vs vehicle control” value (protein TB427.05.4560 GUANINE DEAMINASE, PUTATIVE) was 0.91 and the “fold change vs vehicle control” value (protein TB427.06.1070 HY[…], CONSERVED) was 1.17. For the same compound, the fold change (protein TB427.06.2550 RNA-BINDING PROTEIN, PUTATIVE) was 1.51, the fold change (protein TB427.06.3500 ENDOSOMAL T[…] RME-8, PUTATIVE) was 0.89 and the fold change (protein TB427.06.3630 SPHINGOSINE 1-PHOSPHATE LYASE, PUTATIVE) was 0.95. It also gave a fold change (protein TB427.06.3650 ADP-RI[…], PUTATIVE) of 0.97, a fold change (protein TB427.06.3670 PAR[…] COMPONENT, PUTATIVE) of 1 and a fold change (protein TB427.06.700 ALANYL-TRNA SYNTHETASE, PUTATIVE) of 0.84. For the same compound, the “fold change vs vehicle control” value (protein TB427.07.1300 PROTEIN DISULFIDE ISOMERASE, PUTATIVE) was 1.3, the “fold change vs vehicle control” value (protein TB427.07.3160 DYNEIN HEAVY CHAIN, CYTOSOLIC, PUTATIVE) was 0.87 and the fold change (protein TB427.07.3980 IMMU[…], PUTATIVE) was 0.91. The “fold change vs vehicle control” value (protein TB427.07.4170 FATTY ACID ELONGASE, PUTATIVE) was 0.97, the fold change (protein TB427.07.4180 FATTY ACID ELONGASE, PUTATIVE) was 1.1 and the fold change (protein TB427.07.4970 GLUTAMINE SYNTHETASE, PUTATIVE) was 0.98. The “fold change vs vehicle control” value (protein TB427.07.7500 THYMINE-7-HYDROXYLASE, PUTATIVE) was 0.95, the “fold change vs vehicle control” value (protein TB427.08.1210 HY[…], CONSERVED) was 1.49 and the fold change (protein TB427.08.2060 HY[…], CONSERVED) was 0.91. The fold change (protein TB427.08.2080 HY[…], CONSERVED) was 0.91, the fold change (protein TB427.08.3150 T-COMPLEX PROTEIN 1, GAMMA SUBUNIT, PUTATIVE) was 0.97 and the fold change (protein TB427.08.4210 HY[…], CONSERVED) was 0.91. For the same compound, the fold change (protein TB427.08.5760 HY[…], CONSERVED) was 0.99, the fold change (protein TB427.10.10350 PROTEIN KINASE, PUTATIVE) was 0.62 and the fold change (protein TB427.10.10360 MICROTUBULE-[…], PUTATIVE) was 0.85. The fold change (protein TB427.10.1060 T-COMPLEX PROTEIN 1, DELTA SUBUNIT, PUTATIVE) was 0.96, the “fold change vs vehicle control” value (protein TB427.10.10610 PROTEIN TYROSINE PHOSPHATASE, PUTATIVE) was 1.47 and the fold change (protein TB427.10.1070 CELL DIVISION PROTEIN KINASE 2 HOMOLOG 1 (CRK1)) was 0.93. The “fold change vs vehicle control” value (protein TB427.10.11760 PUMILIO/PUF RNA BINDING PROTEIN 6) was 0.99, the fold change (protein TB427.10.12710 HEAT SHOCK PROTEIN, PUTATIVE) was 0.77 and the “fold change vs vehicle control” value (protein TB427.10.12820 HY[…], CONSERVED) was 0.93. The “fold change vs vehicle control” value (protein TB427.10.12890 BI[…]-TRNA SYNTHETASE, PUTATIVE) was 0.98, the fold change (protein TB427.10.14140 PYRUVATE KINASE 1) was 0.86 and the “fold change vs vehicle control” value (protein TB427.10.14180 PROTEIN TRANSPORT PROTEIN SEC13, PUTATIVE) was 0.89. The “fold change vs vehicle control” value (protein TB427.10.14470 INTR[…] PROTEIN IFT140, PUTATIVE) was 1.33, the fold change (protein TB427.10.1450 HY[…], CONSERVED) was 0.88 and the fold change (protein TB427.10.14860 HY[…], CONSERVED) was 0.95. For the same compound, the “fold change vs vehicle control” value (protein TB427.10.14950 RNA BINDING PROTEIN, PUTATIVE) was 1.37, the fold change (protein TB427.10.2350 PYRUVATE DEH[…] E3 BINDING PROTEIN, PUTATIVE) was 0.93 and the fold change (protein TB427.10.2440 METACASPASE MCA4) was 0.83. The “fold change vs vehicle control” value (protein TB427.10.3470 HY[…], CONSERVED) was 1.2, the fold change (protein TB427.10.4610 […]-MANNOSE SYNTHASE, PUTATIVE) was 0.98 and the “fold change vs vehicle control” value (protein TB427.10.5810 HY[…], CONSERVED) was 0.88. It also gave a fold change (protein TB427.10.5840 T[…] 1-BETA, PUTATIVE) of 0.92, a fold change (protein TB427.10.5850 HY[…], CONSERVED) of 0.88 and a fold change (protein TB427.10.6150 […]/BEIGE PROTEIN, PUTATIVE) of 0.99. The fold change (protein TB427.10.6310 MAJOR VAULT PROTEIN, PUTATIVE) was 0.93, the fold change (protein TB427.10.730 ATP SYNTHASE, PUTATIVE) was 0.84 and the “fold change vs vehicle control” value (protein TB427.10.7410 SUCCINYL-COA LIGASE GDP-FORMING] BETA-CHAIN, PUTATIVE) was 0.94. For the same compound, the fold change (protein TB427.10.8190 T-COMPLEX PROTEIN 1, THETA SUBUNIT, PUTATIVE) was 0.94, the “fold change vs vehicle control” value (protein TB427.10.8230 PROTEIN DISULFIDE ISOMERASE) was 1.25 and the fold change (protein TB427.10.8720 HY[…], CONSERVED) was 1. For the same compound, the “fold change vs vehicle control” value (protein TB427.10.8850 HY[…], CONSERVED) was 0.93, the fold change (protein TB427.10.9890 HY[…], CONSERVED) was 0.65 and the fold change (protein TB927.10.12960 RAS-RELATED PROTEIN RAB-5) was 0.98. For the same compound, the fold change (protein TB927.10.1550 […]-ATP-ASE SUBUNIT 5) was 0.9, the fold change (protein TB927.1.2330 BETA TUBULIN) was 0.99 and the “fold change vs vehicle control” value (protein TB927.10.2890 ENOLASE) was 0.91. It also gave a fold change (protein TB927.10.3660 ASPARTATE AMINOTRANSFERASE) of 0.96, a fold change (protein TB927.10.4180 TFIIF-[…] PHOSPHATASE, PUTATIVE) of 0.87 and a fold change (protein TB927.10.5500 HY[…], CONSERVED) of 0.99. The fold change (protein TB927.10.6050 CLATHRIN HEAVY CHAIN) was 0.87, the “fold change vs vehicle control” value (protein TB927.10.8030 HY[…], CONSERVED) was 1 and the “fold change vs vehicle control” value (protein TB927.10.8940 HY[…], CONSERVED) was 0.97. The fold change (protein TB927.2.100 RETRO[…] SPOT (RHS) PROTEIN, PUTATIVE,RETRO[…] SPOT PROTEIN 1 (RHS1), PUTATIVE) was 0.9, the “fold change vs vehicle control” value (protein TB927.2.2440 […]-ATPASE SUBUNIT 6) was 1.85 and the fold change (protein TB927.2.3800 MRNA […], PUTATIVE) was 0.77. For the same compound, the fold change (protein TB927.3.1240 PROTEIN PHOSPHATASE 2A, PUTATIVE) was 0.77, the “fold change vs vehicle control” value (protein TB927.3.2960 INOSINE-ADENOSINE-GUANOSINE-[…]) was 0.82 and the fold change (protein TB927.3.3190 SERINE/THREONINE-PROTEIN KINASE, PUTATIVE) was 0.89. For the same compound, the “fold change vs vehicle control” value (protein TB927.3.3450 ADP-RI[…]-LIKE PROTEIN 3A, PUTATIVE) was 0.76, the fold change (protein TB927.3.3780 TRYPAREDOXIN) was 0.9 and the “fold change vs vehicle control” value (protein TB927.3.5120 HY[…], CONSERVED (Ankyrin repeats (3 copies), putative)) was 1.2. For the same compound, the “fold change vs vehicle control” value (protein TB927.3.740 HY[…], CONSERVED) was 0.97, the fold change (protein TB927.4.3590 T[…] 1-BETA, PUTATIVE) was 0.77 and the fold change (protein TB927.5.3220 SIGNAL PEPTIDASE TYPE I, PUTATIVE) was 0.9. For the same compound, the “fold change vs vehicle control” value (protein TB927.5.4440 DYNEIN LIGHT CHAIN, PUTATIVE) was 1.1, the fold change (protein TB927.6.2200 HY[…], CONSERVED) was 0.97 and the fold change (protein TB927.6.4460 S-ADENOSYLMETHIONINE DECARBOXYLASE) was 0.97. The “fold change vs vehicle control” value (protein TB927.6.560 CYSTEINE PEPTIDASE C (CPC)) was 1, the “fold change vs vehicle control” value (protein TB927.7.4470 HY[…], CONSERVED) was 1.22 and the fold change (protein TB927.7.6320 HY[…], CONSERVED) was 0.96. For the same compound, the “fold change vs vehicle control” value (protein TB927.7.7430 ATP SYNTHASE ALPHA CHAIN, MIT[…]) was 0.93, the fold change (protein TB927.8.1990 PEROXIDOXIN) was 0.67 and the “fold change vs vehicle control” value (protein TB927.8.4810 PROHIBITIN 1) was 0.99. The fold change (protein TB927.8.890 SMALL GTP-BINDING PROTEIN RAB1, PUTATIVE) was 0.93 and the fold change (protein TB-292 MEMBRANE ASSOCIATED PROTEIN) was 0.93.
